# Publication PMC4775916 (Antimicrobial Agents and Chemotherapy, 2016)
# Where “and” joins values, the source holds several entries; their conditions need not be identical. Identical values can stand only once. Like-named read-outs stand apart in the source and are kept apart here.
# Tests used:
# VIM-5 [1] = target: T1, VIM-5 (Pseudomonas aeruginosa, UniProt A0A0F7KYQ8, A128K/E202A/H201L/K257T/S205R); test: Inhibition of enzyme-mediated nitrocefin hydrolysis; type: biochemical
# T1 construct: His6 with HRV3C cleavage site (pET-28a) (N, cleaved yes); made in house; host or cells: E. coli BL21(DE3)
# Protocol: (§1) Inhibitors were prepared as reported previously ([36], [41]). Enzyme-mediated hydrolysis of nitrocefin was monitored by determining the changes in absorbance at 495 nm, as previously described ([36], [37]). Residual activities were first determined at a 100 μM inhibitor concentration. […] The residual activities were obtained at increasing inhibitor concentrations (0.2 to 2,000 μM); the data were analyzed using GraphPad Prism 5.01 software.
# VIM-1 [2] = target: T2, VIM-1 (Pseudomonas aeruginosa, UniProt A0A0F7KYQ8); test: as above; type: biochemical; conditions: read-out: IC50 VIM-1 (H224, S228)
# T2 construct: The N- and C- terminal residues of the mature enzymes are labelled 26; made in house
# Protocol: as §1
# VIM-38 [3] = target: T3, VIM-38 (Pseudomonas aeruginosa, UniProt A0A0F7KYQ8, A128K/A265V/E202A/H201L/K257T/S205R); test: as above; type: biochemical
# T3 construct: The N- and C- terminal residues of the mature enzymes are labelled 26; His6 with HRV3C cleavage site (pET-28a) (N, cleaved yes); made in house; host or cells: E. coli BL21(DE3)
# Protocol: as §1
# VIM-2 [4] = target: T4, VIM-2 (Escherichia coli, UniProt Q5U7L7); test: as above; type: biochemical; conditions: read-out: IC50 VIM-2 (Y224, R228)
# T4 construct: His6 (N, cleaved yes); made in house
# Protocol: as §1
# VIM-4 [5] = target: T5, VIM-4 (Pseudomonas aeruginosa, UniProt A0A0F7KYQ8, S205R); test: as above; type: biochemical; conditions: for IC50: read-out: IC50 VIM-4 (H224, R228)
# T5 construct: His6 (N, cleaved yes); made in house
# Protocol: as §1
# VIM-5 [6] = target: T1, VIM-5; test: Steady-state kinetics of β-lactam substrate hydrolysis; type: biochemical; conditions: 50 mM HEPES pH 7.2, apparent for ampicillin and ceftazidime; for Km: read-out: Mean Km ± SD VIM-5
# Protocol: (§2) The hydrolysis of a representative panel of β-lactam substrates was monitored at their respective absorbance wavelengths. The wavelengths and extinction coefficients used were previously described ([34]). The assays were carried out using 50 mM HEPES buffer (pH 7.2) supplemented with 1 μg/ml bovine serum albumin (BSA), 1 μM ZnSO4, and 0.01% Triton X-100. In the case of VIM-1, C-terminally His6-tagged VIM-1 was used for kinetic analyses. Note that no differences were observed between the activities of untagged VIM-1 and C-terminally His6-tagged VIM-1 for the selected antibiotics (data not shown). The initial rates were obtained from the changes in absorbance at various substrate concentrations. Steady-state kinetic parameters (Km and kcat) were determined by fitting the initial velocity data to the Michaelis-Menten equation using GraphPad Prism 5.01 software (see Table S4 in the supplemental material).
# VIM-38 [7] = target: T3, VIM-38; test: as above; type: biochemical; conditions: 50 mM HEPES pH 7.2, apparent for ampicillin and ceftazidime; for Km: read-out: Mean Km ± SD VIM-38
# Protocol: as §2
# VIM-38 [8] = test: as above; type: biochemical; conditions: VIM-38 versus VIM-1
# Protocol: as §2
# VIM-5 [9] = test: as above; type: biochemical; conditions: VIM-5 versus VIM-1
# Protocol: as §2
# VIM-5 [10] = target: T1, VIM-5; test: 1H CPMG NMR binding assay (thiomandelic acid reporter ligand displacement)
# Protocol: (§3) Binding assays were carried out using ^1H-edited Carr-Purcell-Meiboom-Gill (CPMG) nuclear magnetic resonance (NMR) analyses. Spectra were recorded by using a Bruker AVIII 600-MHz NMR spectrometer equipped with a BB-F/^1H Prodigy N2 cryoprobe using 3-mm Match NMR tubes (Cortectnet). The PROJECT-CPMG sequence (90°x-[τ-180°y-τ-90°y-τ-180°y-τ]n-acq) was applied, and water suppression was achieved by presaturation. […] Assays were conducted using 50 mM Tris-D11 (pH 7.5) supplemented with 0.02% NaN3 in 90% H2O and 10% D2O. Equilibrium dissociation constant (KD) measurements for the reporter ligand (50 μM thiomandelic acid) and inhibitors (0 to 300 μM) were carried out as previously reported ([43]). Data were processed with Bruker 3.1 software and fitted by using Origin Pro8.5.1 (see Table S5 in the supplemental material).
# (§4) *Apparent kinetic parameters were reported for ampicillin and ceftazidime hydrolysis. #C-terminal His -tagged […]
# (§5) VIM-1 was used for kinetic analyses.
# (§6) Table S5. Apparent KD curve fitting for the binding of inhibitors (1) and (2) to VIM-2 and […]
# (§7) Apparent KD fitting as monitored by 1H CPMG NMR spectra of the signal recovery of thiomandelic acid (50 μM) upon addition of increasing concentrations of 1 and 2 with a final enzyme concentration of 50 μM VIM-2/VIM-5. Assays were conducted in 50 mM Tris-D11 (pH […]
# (§8) (also on this page, place not known: K D Tris-D 11 His6-tagged V0 (µM/ s) NN OHO % thiomandelic acid displacement µM % thiomandelic acid displacement) […]
# VIM-2 [11] = target: T4, VIM-2; test: as above; conditions: 50 μM thiomandelic acid, 50 μM enzyme, 50 mM Tris-D11 pH 7.5, read-out: KD app VIM-2
# Protocol: as §3, §4, §5, §6, §7, §8
# VIM-2 [12] = test system: VIM-2; parameters: method as in Poirel et al. (5); conditions: previous studies ref Poirel et al. (5), cited from earlier work
# VIM-2 [13] = type: biochemical; conditions: VIM-2 versus VIM-1
# Protocol: as §2
# VIM-1 [14] = target: T2, VIM-1; test: Steady-state kinetics of β-lactam substrate hydrolysis; type: biochemical; conditions: C-terminally His6-tagged VIM-1; 50 mM HEPES pH 7.2; apparent for ampicillin and ceftazidime
# Protocol: as §2
# VIM-5 [15] = test system: VIM-5; parameters: method as in Garcar et al. (6); conditions: previous studies ref Garcar et al. (6), cited from earlier work
# VIM-1 [16] = target: T2, VIM-1; conditions: previous studies ref Franceschini et al. (4), cited from earlier work
# VIM-5 [17] = target: T1, VIM-5; test: Nitrocefin hydrolysis kinetics before thermal denaturation and after refolding; type: biochemical
# Protocol: (§9) Circular dichroism (CD) analyses were carried out using a Chirascan CD spectrophotometer (Applied Photophysics) equipped with a Peltier temperature-controlled cell holder. CD measurements were collected in the range of 185 to 260 nm; spectra were baseline corrected and smoothed using a Savitzky-Golay filter. Data were normalized at 207 nm to account for differences in protein concentrations ([38]), and the estimation of secondary structure content was performed with Dichro Web ([39]) using the CONTIN Analysis Programme (reference set 6) ([40]). Melting temperatures (Tm) of the recombinant enzymes were determined by monitoring temperature-induced changes in the CD signal at 222 nm. The temperature was increased by 1°C per min, and the CD signal was recorded at temperatures ranging from 25°C to 92°C. The samples were then cooled from 92°C to 25°C at the same rate, and a CD spectrum of the refolded proteins was determined. The activity of the enzymes was recorded before thermal denaturation and after refolding by monitoring nitrocefin hydrolysis. The thermal denaturation data were fitted to a Boltzmann sigmoidal curve by using GraphPad Prism 5.0 software. CD spectra and thermal denaturation curves are shown in Fig. 2 and in Tables S2 and S3 in the supplemental material.
# VIM-1 [18] = target: T2, VIM-1; test: as above; type: biochemical
# Protocol: as §9
# VIM-38 [19] = target: T3, VIM-38; test: as above; type: biochemical
# Protocol: as §9
# VIM-2 [20] = target: T4, VIM-2; test: as above; type: biochemical
# Protocol: as §9
# VIM-4 [21] = target: T5, VIM-4; test: as above; type: biochemical
# Protocol: as §9
# VIM-38 [22] = test: Inhibition of enzyme-mediated nitrocefin hydrolysis; type: biochemical; conditions: VIM-38 versus VIM-1
# Protocol: as §1
# VIM-2 [23] = test: as above; type: biochemical; conditions: VIM-2 versus VIM-5 and VIM-38
# Protocol: as §1
# VIM-5 [24] = test: as above; type: biochemical; conditions: VIM-5 versus VIM-1
# Protocol: as §1
# Throughout, for IC50 VIM-4 (H224, R228): 10 min preincubation.
smiles,measurement,setting,value
O=C(N[C@H](Cc1c[nH]c2ccccc12)C(=O)O)c1ncccc1O [compound 3],IC50,VIM-5 [1],50 µM
same,IC50,VIM-1 [2],50 µM
same,IC50,VIM-38 [3],50 µM
same,IC50,VIM-2 [4],100 µM
same,IC50,VIM-4 [5],125 µM
CO[C@@]1(NC(=O)Cc2cccs2)C(=O)N2C(C(=O)O)=C(COC(N)=O)CS[C@@H]21 [Cefoxitin],kcat VIM-5,VIM-5 [6],460 s⁻¹
same,Km,VIM-5 [6],320 ± 60 µM
same,kcat VIM-38,VIM-38 [7],340 s⁻¹
same,Km,VIM-38 [7],230 ± 60 µM
same,fold increase in kcat/Km of VIM-38 over VIM-1,VIM-38 [8],> 7 fold
same,fold-higher kcat of VIM-38 than VIM-1,VIM-38 [8],> 10 fold
same,fold increase in kcat/Km of VIM-5 over VIM-1,VIM-5 [9],> 7 fold
same,fold-higher kcat of VIM-5 than VIM-1,VIM-5 [9],> 10 fold
O=C(N[C@@H](Cc1c[nH]c2ccccc12)C(=O)O)c1nc(Cl)c2ccccc2c1O [compound 2],Kd,VIM-5 [10],180 µM
same,Kd,VIM-2 [11],330 µM
same,IC50,VIM-5 [1],50 µM
same,IC50,VIM-1 [2],60 µM
same,IC50,VIM-38 [3],80 µM
same,IC50,VIM-2 [4],300 µM
same,IC50,VIM-4 [5],600 µM
C[C@@H](O)[C@H]1C(=O)N2C(C(=O)O)=C(SCCN=CN)C[C@H]12 [Imipenem],kcat VIM-2 (previous study),VIM-2 [12],9.9 s⁻¹
same,Km,VIM-2 [12]; read-out: Km VIM-2 (previous study),10 µM
same,fold increase in kcat/Km of VIM-2 compared to VIM-1,VIM-2 [13],6 fold
same,kcat VIM-5,VIM-5 [6],58 s⁻¹ and 60 s⁻¹
same,Km,VIM-5 [6],58 µM and 60 µM
same,kcat VIM-1,VIM-1 [14],30 s⁻¹
same,kcat VIM-38,VIM-38 [7],90 s⁻¹
same,Km,VIM-38 [7],150 ± 20 µM
same,kcat VIM-5 (previous study),VIM-5 [15],3.5 s⁻¹
same,Km,VIM-5 [15]; read-out: Km VIM-5 (previous study),12 µM
same,kcat VIM-1 (previous study),VIM-1 [16],2 s⁻¹
same,Km,VIM-1 [16]; read-out: Km VIM-1 (previous study),1.5 µM
O=C(Cc1cccs1)N[C@@H]1C(=O)N2C(C(=O)O)=C(/C=C/c3ccc([N+](=O)[O-])cc3[N+](=O)[O-])CS[C@H]12 [Nitrocefin],kcat VIM-5 after refolding,VIM-5 [17]; after refolding,100 s⁻¹
same,Km,"VIM-5 [17]; after refolding, read-out: Km VIM-5 after refolding",11 ± 1 µM
same,kcat VIM-5 pre-heating,VIM-5 [17]; pre-heating,210 s⁻¹
same,Km,"VIM-5 [17]; pre-heating, read-out: Km VIM-5 pre-heating",45 ± 3 µM
same,kcat VIM-1 after refolding,VIM-1 [18]; after refolding,12 s⁻¹
same,kcat VIM-1 pre-heating,VIM-1 [18]; pre-heating,25 s⁻¹
same,kcat VIM-38 pre-heating,VIM-38 [19]; pre-heating,690 s⁻¹
same,Km,"VIM-38 [19]; read-out: Km VIM-38 after refolding, after refolding",40 ± 4 µM
same,Km,"VIM-38 [19]; read-out: Km VIM-38 pre-heating, pre-heating",55 ± 6 µM
same,kcat VIM-2 after refolding,VIM-2 [20]; after refolding,290 s⁻¹
same,Km,VIM-2 [20]; pre-heating,13 ± 1 µM
same,kcat VIM-2 pre-heating,VIM-2 [20]; pre-heating,290 s⁻¹
same,kcat VIM-4 after refolding,VIM-4 [21]; after refolding,180 s⁻¹
same,Km,"VIM-4 [21]; after refolding, read-out: Km VIM-4 after refolding",30 ± 2 µM
same,kcat VIM-4 pre-heating,VIM-4 [21]; pre-heating,340 s⁻¹
same,Km,"VIM-4 [21]; pre-heating, read-out: Km VIM-4 pre-heating",45 ± 1 µM
same,kcat VIM-5,VIM-5 [6],420 s⁻¹
same,Km,VIM-5 [6],50 ± 5 µM
same,kcat VIM-38,VIM-38 [7],720 s⁻¹
same,Km,VIM-38 [7],70 ± 10 µM
O=C(N[C@H](Cc1c[nH]c2ccccc12)C(=O)O)c1nc(Cl)c2ccccc2c1O [compound 1],Kd,VIM-5 [10],140 µM
same,Kd,VIM-2 [11],180 µM
same,IC50,VIM-5 [1],2 µM
same,IC50,VIM-1 [2],> 1000 µM
same,IC50,VIM-38 [3],2 µM
same,better inhibitor of VIM-38 than VIM-1 (IC50 ratio),VIM-38 [22],> 500 fold
same,fold-higher IC50 of VIM-2 than VIM-5 and VIM-38,VIM-2 [23],> 40 fold
same,better inhibitor of VIM-5 than VIM-1 (IC50 ratio),VIM-5 [24],> 500 fold
same,IC50,VIM-2 [4],90 µM
same,fold-higher IC50 of VIM-4 than VIM-5 and VIM-38,VIM-4 [5]; VIM-4 versus VIM-5 and VIM-38,> 40 fold
same,IC50,VIM-4 [5],200 µM
